≈ marks a conversion by molar mass, not a printed value.
Conditions: for aqueous solubility: pH 6.8

MDR1-MDCK efflux ratio | intrinsic clearance, human liver microsomes | intrinsic clearance, rat liver microsomes | aqueous solubility | fraction unbound, human plasma | fraction unbound, rat plasma | Compound
21.2 | ≤ 4.74 mL/min/kg | 113 mL/min/kg |  |  |  | CN(CC1(CO)CCCC1)C(=O)CCN1CCCCC1=O
 | ≤ 4.74 mL/min/kg | 47.9 mL/min/kg |  |  |  | O=c1n(Cc2ccccn2)nc2n1-c1cc(Cl)ccc1C1=NCCN12
 | 353 mL/min/kg | 770 mL/min/kg | 1.04 µg/mL (≈ 2.32 µM) |  |  | CCn1c(COC(=O)c2ccc(C)s2)nc2cc(S(=O)(=O)N3CCCCC3)ccc21
 | 8.57 mL/min/kg | 191 mL/min/kg | 2.5 µg/mL (≈ 8.03 µM) | 0.0539 | 0.0286 | CC(C)(C)c1ccc(-c2nc3n(c(=O)c2C#N)CCS3)cc1
1.72 | 4.99 mL/min/kg | 15.6 mL/min/kg | 46.3 µg/mL (≈ 187 µM) |  |  | Cc1cc(C)c(CC(=O)N2CC(CO)C2)c(C)c1
1.08 | 29 mL/min/kg | 75.1 mL/min/kg | 8.73 µg/mL (≈ 25.1 µM) |  |  | Cc1cc(C(=O)Nc2cccc(-c3cnco3)c2)c2c(C)nn(C)c2n1
 | ≤ 4.74 mL/min/kg | ≤ 10.7 mL/min/kg | 25.7 µg/mL (≈ 98.3 µM) |  |  | Cc1nc2c(cnn2C(C)C)c(C)c1CCC(=O)O
0.639 | 63.1 mL/min/kg | 232 mL/min/kg | 41.1 µg/mL (≈ 158 µM) |  |  | Cc1cc(C(=O)NCCc2ccccn2)c(C)s1
2.22 | ≤ 4.74 mL/min/kg | 53.8 mL/min/kg | 52.5 µg/mL (≈ 189 µM) |  |  | COc1ccc(C(=O)N(C)Cc2nccn2C)c(F)c1
1.32 | 14.3 mL/min/kg | 239 mL/min/kg | 29.3 µg/mL (≈ 118 µM) |  |  | CCCCn1nc(-c2ccc(C)o2)nc1CNC
2.29 | 601 mL/min/kg | 2980 mL/min/kg |  |  |  | CN(CC(=O)Nc1cccc(S(=O)(=O)N2CCCC2)c1)C1CCCCC1
0.316 |  |  | 0.7 µg/mL (≈ 1.84 µM) | 0.00631 | 0.0241 | CC1(C)Cc2cc(NC(=O)c3cnn4cccnc34)c(OCC3CC3)nc2O1
10.7 | 68.6 mL/min/kg | 308 mL/min/kg |  |  |  | COc1cccc(CC(=O)N2CCOC(c3cc(Nc4nnc(C)s4)cc(C)n3)C2)c1 (configuration not stated)
0.571 | 19.6 mL/min/kg | 148 mL/min/kg |  |  |  | c1cnc(NCc2cccc(-c3cccnc3)c2)nc1
7.69 | ≤ 4.74 mL/min/kg | 19.5 mL/min/kg | 10.4 µg/mL (≈ 21.2 µM) |  |  | Cc1noc(-c2ccc(-c3ccc(CC(=O)O)cc3)cc2)c1NC(=O)O[C@H](C)c1ccccc1Cl
27.6 | ≤ 4.74 mL/min/kg | 109 mL/min/kg | 62.2 µg/mL (≈ 154 µM) |  |  | COc1ccc(S(=O)(=O)CCC(=O)Nc2ccc3c(c2)N(C)C(=O)CO3)cc1
 | 122 mL/min/kg | 541 mL/min/kg |  |  |  | Cc1ccc(S(=O)(=O)Nc2ccccc2-c2nc3ccccc3[nH]2)cc1
 | ≤ 4.74 mL/min/kg | 463 mL/min/kg | 63.6 µg/mL (≈ 215 µM) |  |  | CONC(=O)c1cn(-c2ccc(Br)cc2)cn1
28 | 281 mL/min/kg | 1650 mL/min/kg |  |  |  | O=C(c1cccc(Nc2ncccn2)c1)N1CCOCC(Cc2cccc3ccncc23)C1 (configuration not stated)

MDR1-MDCK efflux ratio | intrinsic clearance, human liver microsomes | intrinsic clearance, rat liver microsomes | aqueous solubility | fraction unbound, human plasma | fraction unbound, rat plasma | Compound
 | 40.2 mL/min/kg | 402 mL/min/kg |  |  |  | Cc1ccc(F)cc1NCc1csc(-c2cnn(C)c2)n1
0.584 | ≤ 4.74 mL/min/kg | 31 mL/min/kg | 15.3 µg/mL (≈ 71.7 µM) |  |  | c1ccc(CN2CCn3nccc3C2)cc1
106 | 17.6 mL/min/kg | 790 mL/min/kg |  |  |  | COc1cc(OC)cc(N(CCNC(C)C)c2ccc3ncc(-c4cnn(C)c4)nc3c2)c1
18.7 |  |  | 0.8 µg/mL (≈ 1.91 µM) |  |  | O=C(Cn1cccc(C(=O)Nc2cccc(-n3cccn3)c2)c1=O)NC1CCCCC1
1.69 | 167 mL/min/kg | 283 mL/min/kg | 70 µg/mL (≈ 165 µM) |  |  | CCC(=O)N1CCCc2cc(C(O)CN3CCN(c4ccc(OC)cc4)CC3)ccc21 (configuration not stated)
 | 186 mL/min/kg | 2420 mL/min/kg |  |  |  | Cc1ccc(S(=O)(=O)N2CCCc3ccc(NS(=O)(=O)c4ccc(F)cc4C)cc32)cc1
0.666 | 17.8 mL/min/kg | 570 mL/min/kg | 31.1 µg/mL (≈ 114 µM) |  |  | COc1ccncc1NCc1ccc2c(c1)OCCO2
0.581 |  |  | 0.96 µg/mL (≈ 3.79 µM) |  |  | c1ccc2c(c1)nnn2Cc1ccc2c(c1)OCO2
0.484 | ≤ 4.74 mL/min/kg | 393 mL/min/kg | 40.8 µg/mL (≈ 175 µM) |  |  | CN(CC(=O)Nc1ccncc1)C1CCCC1
0.629 | 69.6 mL/min/kg | 497 mL/min/kg | 55.5 µg/mL (≈ 165 µM) |  |  | O=C(CCc1cc2ccccc2o1)N1CCN(c2cnccn2)CC1
0.438 |  |  | 0.35 µg/mL (≈ 1.06 µM) |  |  | Cc1nc(-c2ccccc2)c(C(=O)Nc2ccc(Cl)cc2)s1
 |  |  | 39.9 µg/mL (≈ 145 µM) |  |  | CC1(C)CN(C(=O)c2cscn2)CCS1(=O)=O
0.527 | 25.9 mL/min/kg | 862 mL/min/kg | 32 µg/mL (≈ 105 µM) |  |  | CCN(C/C=C/c1ccc(F)cc1)Cc1nc(COC)no1
55.2 | ≤ 4.74 mL/min/kg | 75 mL/min/kg |  |  |  | CN(C)c1ccc(-c2ccc(C(=O)NCCN3CCCC3=O)cc2)nn1
14.2 | 63 mL/min/kg | 2210 mL/min/kg | 48.8 µg/mL (≈ 167 µM) |  |  | CCN(C(=O)c1cc(NC(C)=O)ccc1F)C1CCCC1
0.657 | 19.2 mL/min/kg | 223 mL/min/kg | 40.9 µg/mL (≈ 159 µM) |  |  | Cc1ccc(CN(C)c2ncnc3c2cnn3C)o1
0.585 | ≤ 4.74 mL/min/kg | ≤ 10.7 mL/min/kg |  |  |  | COc1ncccc1C(=O)Nc1nc(C)nn1C
2.39 | 61.2 mL/min/kg | 250 mL/min/kg | 50.5 µg/mL (≈ 145 µM) |  |  | COc1cccc(NC(=O)CNc2cccc(-c3ccnc(C)n3)c2)c1
27.4 | 59 mL/min/kg | 313 mL/min/kg |  |  |  | C[C@H](Cc1cc2c(c(C(N)=O)c1)N(CCCO)CC2)NCCOc1ccccc1OCC(F)(F)F

MDR1-MDCK efflux ratio | intrinsic clearance, human liver microsomes | intrinsic clearance, rat liver microsomes | aqueous solubility | fraction unbound, human plasma | fraction unbound, rat plasma | Compound
0.2 | 85.2 mL/min/kg | 477 mL/min/kg |  |  |  | Cc1ccc(Nc2ccnc(Nc3ccc(C)cc3)n2)cc1
 |  |  | 31.2 µg/mL (≈ 116 µM) |  |  | CC(=O)NCc1ccc(-c2ccccc2C(=O)O)cc1
28 | ≤ 4.74 mL/min/kg | ≤ 10.7 mL/min/kg | 29.2 µg/mL (≈ 72.6 µM) |  |  | COc1cc(OC)c(OC)cc1CNc1ccc(N2CCOCC2)c(C(=O)O)c1
0.695 |  |  | 0.37 µg/mL (≈ 1.07 µM) |  |  | CSCC(=O)Nc1nc(-c2ccc(C3CCCCC3)cc2)cs1
0.563 | 185 mL/min/kg | 491 mL/min/kg |  |  |  | CCc1sc(N)nc1-c1ccc(OC)cc1
2.16 | 51.4 mL/min/kg | 419 mL/min/kg | 54.8 µg/mL (≈ 143 µM) |  |  | O=C(CN1CCCC(c2cccc(-c3cccc(Cl)c3)n2)C1)N1CCCC1 (configuration not stated)
0.969 |  |  | 0.38 µg/mL (≈ 1.07 µM) |  |  | O=c1c2cc(OCc3ccc(Cl)cc3)ccc2nc2n1CCCCC2
0.771 | ≤ 4.74 mL/min/kg | 193 mL/min/kg |  |  |  | C[C@@H]1NC(=O)N(CCC2Cc3ccccc3C2)C1=O
1.94 | 5.4 mL/min/kg | 52.6 mL/min/kg | 55.8 µg/mL (≈ 160 µM) |  |  | O=C(C1CCCN(Cc2cc3c(cc2O)OCO3)C1)N1CCOCC1 (configuration not stated)
3.79 | 35.6 mL/min/kg | 2700 mL/min/kg |  |  |  | Cc1c[nH]c(CNCc2ccccc2CC(C)C)n1
1.08 | 5.37 mL/min/kg | 26.5 mL/min/kg | 32.8 µg/mL (≈ 152 µM) |  |  | COc1ccc(C)cc1-c1cccnc1O
0.855 | ≤ 4.74 mL/min/kg | 12.4 mL/min/kg | 28.4 µg/mL (≈ 130 µM) |  |  | C#CCNC(=O)c1cc(C(C)C)nn1CC
1.22 | ≤ 4.74 mL/min/kg | 116 mL/min/kg | 5.86 µg/mL (≈ 17.3 µM) |  |  | O=C(Nc1ccccc1)N1CCCc2cnc(N3CCOCC3)nc21
0.697 | ≤ 4.74 mL/min/kg | ≤ 10.7 mL/min/kg | 26.5 µg/mL (≈ 131 µM) |  |  | N#Cc1ccc(Cn2cncn2)c(F)c1
34.9 |  |  | 0.17 µg/mL (≈ 0.325 µM) |  |  | C=CC(=O)N1CCC[C@@H](n2nc(-c3cccc(C(=O)Nc4ccc(C(C)C)c(C)c4)c3)c3c(N)ncnc32)C1
0.584 | 6.93 mL/min/kg | ≤ 10.7 mL/min/kg | 39.8 µg/mL (≈ 187 µM) |  |  | N#Cc1ccc(OCCn2cccn2)cc1
93.4 | ≤ 4.74 mL/min/kg | 10.9 mL/min/kg |  |  |  | O[C@H]1CC[C@H](Nc2ncc3nc(Nc4c(F)cc(F)cc4F)n([C@H]4CCOC4)c3n2)CC1
0.775 | 13.7 mL/min/kg | 5720 mL/min/kg |  |  |  | CC(C)Nc1ccc(-c2cc3c(cc2CO)OCCO3)cn1
1.02 | 113 mL/min/kg | 2820 mL/min/kg |  |  |  | COc1cccc(Cc2nc3sc4c(c3c(=O)[nH]2)CCSC4)c1

Compound | MDR1-MDCK efflux ratio | intrinsic clearance, human liver microsomes | intrinsic clearance, rat liver microsomes | aqueous solubility | fraction unbound, human plasma | fraction unbound, rat plasma
COc1cc([C@@H]2c3cc4c(cc3[C@H](O)[C@H]3COC(=O)[C@@H]23)OCO4)cc(OC)c1OC | 0.444 | 44.5 mL/min/kg | 5860 mL/min/kg |  |  | 
